From patent EP0234931A1, “Azaanthracene compounds” (TAISHO PHARMACEUTICAL CO. LTD, priority 1986, dated 1987)

System: p388 lymphocytic leukemia
Assay: P388 Lymphocytic Leukemia Test
Type: in vivo, CDF₁ mice
Conditions: median survival time treated/control
Experimental: P388 Lymphocytic Leukemia Test
Female, CDF₁ mice (5-6 weeks old, weighing 17-20 g) were intraperitoneally transplanted with 1 × 10⁶ cells of p388 lymphocytic leukemia passaged on female, DBA/2 mice on day 0.
A suspension of the compound of formula (I) in 0.5% of gum arabic saline solution was administered intraperitoneally once a day, 5 times in all, from day l to day 5, or 2 times in all, day l and day 5. A solution of 5-fluorouracil in saline served as a reference drug, and was administered similarly. Control group were similarly administered with only 0.5% gum arabic saline solution.
Eight animals were used for the treated group with the compound of formula (I) and the reference drug, respectively, and 16 animals for control group.
The antitumor effect was evaluated according to the criterion of the National Cancer Institute of the United States (NCI). The survivors of each group were recorded for 30 days, and the value of T/C × 100 (%) was calculated from the median survival times for the treated animals (T) and the control animals (C). When the value is 125 or more, the drug is judged to be effective.

[1] = Dose 25.0 mg/kg intraperitoneally, administration day 1 - 5
[2] = Dose 50.0 mg/kg intraperitoneally, administration day 1 - 5

With CN(C)CCNC(=O)c1c(O)c2ccccc2c2nc3ncccc3nc12 [Compound 5, N-β-dimethylaminoethyl 5-hydroxybenzo[f]pyrido[3,2-b]quinoxaline-6-carboxamide] the “T/C x 100” value [1] was 130%, the “T/C x 100” value (Dose 50.0 mg/kg intraperitoneally, administration day 1, 5) was 135% and the “T/C x 100” value (Dose 100 mg/kg intraperitoneally, administration day 1, 5) was 195%. The “T/C x 100” value (Dose 200 mg/kg intraperitoneally, administration day 1, 5) was 200%.
For O=C(NCCNCCO)c1c(O)c2ccccc2c2nc3ncccc3nc12 [Compound 7, N-2-(2-hydroxyethylamino)ethyl 5-hydroxybenzo[f]pyrido[3,2-b]quinoxaline-6-carboxamide], the “T/C x 100” value [1] was 174% and the “T/C x 100” value [2] was 227%.
For CN(C)CCNC(=O)c1c(O)c2ccccc2c2nc3ncncc3nc12 [Compound 8, N-β-dimethylaminoethyl 5-hydroxynaphtho[2,1-g]pteridine-6-carboxamide], the “T/C x 100” value [1] was 133%, the “T/C x 100” value [2] was 153% and the “T/C x 100” value (Dose 100 mg/kg intraperitoneally, administration day 1 - 5) was 148%.
With O=c1[nH]cc(F)c(=O)[nH]1 [5-fluoro-uracil, 5-fluorouracil, reference compound] the “T/C x 100” value (Dose 3.1 mg/kg intraperitoneally, administration day 1 - 5) was 136%, the “T/C x 100” value (Dose 6.3 mg/kg intraperitoneally, administration day 1 - 5) was 148% and the “T/C x 100” value (Dose 12.5 mg/kg intraperitoneally, administration day 1 - 5) was 166%. The “T/C x 100” value [1] was 176%.
CN(C)CCNC(=O)c1c(O)c2ccccc2c2nc3ccncc3nc12 [Compound 1, N-β-dimethylaminoethyl 5-hydroxybenzo[f]pyrido[3,4-b]quinoxaline-6-carboxamide] was tested, and the “T/C x 100” value (Dose 6.3 mg/kg intraperitoneally, administration day 1, 5, 30 days observation) was 133%, the “T/C x 100” value (Dose 12.5 mg/kg intraperitoneally, administration day 1, 5) was 137% and the “T/C x 100” value (Dose 25.0 mg/kg intraperitoneally, administration day 1, 5) was 275%.
